Test results from patent US12037344B2, “NLRP3 modulators” (INNATE TUMOR IMMUNITY, INC., priority 2018, dated 2024).
Read-outs that look alike come from different tables or passages of the source.

What was measured:
[1] = test system: THP-1 cells; experiment: Measurement of IL-1β production, hTRF protocol (second alternative procedure), THP-1 cells; type: cell-based, human; settings: read-out: NLRP3 hILIB EC50
Protocol: Measurement of IL-1β Production—hTRF Protocol (Second Alternative Procedure)
Serial dilutions of compounds in DMSO were added to low volume 384 well plates at 100 nl/well using an ECHO 550 acoustic dispenser (Labcyte) to achieve final starting concentration of 10 μM in assay.
THP-1 cells in RPMI (Gibco, 11875) media with 10% FBS at a density of 1×10^6 cell/ml in a T175 flask were treated with a final concentration of phorbol 12-myristate 13-acetate (PMA) (Sigma, P1585) of 50 ng/ml overnight at 37° C. at 5% CO2 for differentiation. Cells were harvested the next day after rinsing well with dPBS using 0.5% trypsin. A cell solution was prepared of 1×10^6 cells/ml for 50,000 cells in 50 μl/well in RPMI media with 2% FBS. Cells were plated using a multichannel pipette onto the compound dilutions in Greiner, 384 well, black clear bottom tissue culture treated plates (781090). The plates were incubated in 37° C. incubator at 5% CO2 for 2 hours.
After the 2 hour incubation, the cell plates were spun in the centrifuge for 5 minutes at 1200 rpm. Using the Felix (CyBio), 8 μl of the supernatant was transferred to 384 well, low volume, white proxy plates. (Perkin Elmer, 6008230). A human IL1beta hTRF kit was used to analyze the supernatant (CISBIO, 62HIL1BPEG). The kit instructions were followed for preparing the IL1Beta standard curve and then the antibodies from the kit were diluted 1:40 rather than 1:20 as kit instructed. Once combined, the antibodies were added across the plates, 5 μl/well. The plates were sealed and incubated at 4° C. overnight. The plates were then read on the Perkin Elmer EnVision at 665/615 nm using the hTRF laser.

[2] = target: T1, TLR7 (Homo sapiens, UniProt Q9NYK1); experiment: In vitro human TLR7 binding reporter assay (HEK-Blue, NF-kB/AP1-inducible SEAP); type: cell-based; settings: read-out: TLR7 Agonist EC50
T1 construct: human HEK-Blue cells co-expressing a TLR7 or TLR8 gene
T1 sequence (Q9NYK1 27-1049): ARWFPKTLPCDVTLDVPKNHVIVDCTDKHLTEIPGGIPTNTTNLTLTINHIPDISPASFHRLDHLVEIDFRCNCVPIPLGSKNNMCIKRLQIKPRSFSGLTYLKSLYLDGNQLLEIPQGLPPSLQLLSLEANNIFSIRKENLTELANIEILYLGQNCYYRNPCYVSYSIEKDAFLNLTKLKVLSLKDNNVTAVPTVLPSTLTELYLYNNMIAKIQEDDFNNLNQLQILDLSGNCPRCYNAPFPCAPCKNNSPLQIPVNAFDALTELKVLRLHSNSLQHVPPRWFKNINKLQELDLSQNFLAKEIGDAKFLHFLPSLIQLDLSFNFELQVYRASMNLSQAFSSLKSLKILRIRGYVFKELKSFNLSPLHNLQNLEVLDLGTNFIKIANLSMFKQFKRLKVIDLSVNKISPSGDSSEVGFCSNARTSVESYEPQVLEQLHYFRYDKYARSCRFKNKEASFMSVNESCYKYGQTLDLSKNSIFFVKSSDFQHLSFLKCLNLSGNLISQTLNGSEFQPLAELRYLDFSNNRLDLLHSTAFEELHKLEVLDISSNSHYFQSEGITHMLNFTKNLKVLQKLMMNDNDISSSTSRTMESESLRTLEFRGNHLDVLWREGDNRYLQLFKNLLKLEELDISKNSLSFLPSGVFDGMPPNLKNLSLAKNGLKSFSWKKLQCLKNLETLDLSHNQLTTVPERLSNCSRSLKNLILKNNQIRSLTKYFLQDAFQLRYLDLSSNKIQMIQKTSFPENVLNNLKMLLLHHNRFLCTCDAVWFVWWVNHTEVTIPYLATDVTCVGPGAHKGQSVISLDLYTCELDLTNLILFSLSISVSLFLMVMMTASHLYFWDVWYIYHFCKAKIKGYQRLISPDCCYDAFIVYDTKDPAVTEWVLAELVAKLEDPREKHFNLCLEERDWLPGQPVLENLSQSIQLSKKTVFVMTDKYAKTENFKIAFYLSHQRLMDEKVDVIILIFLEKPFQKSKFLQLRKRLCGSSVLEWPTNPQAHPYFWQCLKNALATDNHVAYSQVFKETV
Protocol: (§1) In Vitro Human TLR7 and TLR8 Binding Reporter Assays
(§2) Logarithmically-growing human HEK-Blue cells co-expressing a TLR7 or TLR8 gene and a NF-kB/AP1-inducible SEAP (secreted embryonic alkaline phosphatase; Invivogen, San Diego, CA) reporter gene are added to individual wells of a 384-well plate (15,000 cells per 20 μL per well) and maintained for 24 h at 37° C., 5% CO2. Test compounds or DMSO are distributed to separate wells the next day using acoustic liquid handling technology (100 nL per well) and cells are subsequently incubated for 18 h at 37° C., 5% CO2. Cellular SEAP production is measured using an Envision plate reader instrument thirty minutes after adding freshly-made Quanti-Blue reagent (prepared by following manufacturer instructions; Invivogen, San Diego, CA) to the HEK-Blue TLR Nf-kB-SEAP cell reactions. All EC50 values (half-maximal effective concentration) are determined using proprietary data analysis software. Normalized EC50 value=absolute value determined by setting 100% Ymax using a reference standard RLU (relative light unit) values from cells treated with 50 μM of the reference standard.

[3] = target: T2, TLR8 (Homo sapiens, UniProt Q9NR97); experiment: In vitro human TLR8 binding reporter assay (HEK-Blue, NF-kB/AP1-inducible SEAP); type: cell-based; settings: read-out: TLR8 Agonist EC50
T2 construct: human HEK-Blue cells co-expressing a TLR7 or TLR8 gene
T2 sequence (Q9NR97 27-1041): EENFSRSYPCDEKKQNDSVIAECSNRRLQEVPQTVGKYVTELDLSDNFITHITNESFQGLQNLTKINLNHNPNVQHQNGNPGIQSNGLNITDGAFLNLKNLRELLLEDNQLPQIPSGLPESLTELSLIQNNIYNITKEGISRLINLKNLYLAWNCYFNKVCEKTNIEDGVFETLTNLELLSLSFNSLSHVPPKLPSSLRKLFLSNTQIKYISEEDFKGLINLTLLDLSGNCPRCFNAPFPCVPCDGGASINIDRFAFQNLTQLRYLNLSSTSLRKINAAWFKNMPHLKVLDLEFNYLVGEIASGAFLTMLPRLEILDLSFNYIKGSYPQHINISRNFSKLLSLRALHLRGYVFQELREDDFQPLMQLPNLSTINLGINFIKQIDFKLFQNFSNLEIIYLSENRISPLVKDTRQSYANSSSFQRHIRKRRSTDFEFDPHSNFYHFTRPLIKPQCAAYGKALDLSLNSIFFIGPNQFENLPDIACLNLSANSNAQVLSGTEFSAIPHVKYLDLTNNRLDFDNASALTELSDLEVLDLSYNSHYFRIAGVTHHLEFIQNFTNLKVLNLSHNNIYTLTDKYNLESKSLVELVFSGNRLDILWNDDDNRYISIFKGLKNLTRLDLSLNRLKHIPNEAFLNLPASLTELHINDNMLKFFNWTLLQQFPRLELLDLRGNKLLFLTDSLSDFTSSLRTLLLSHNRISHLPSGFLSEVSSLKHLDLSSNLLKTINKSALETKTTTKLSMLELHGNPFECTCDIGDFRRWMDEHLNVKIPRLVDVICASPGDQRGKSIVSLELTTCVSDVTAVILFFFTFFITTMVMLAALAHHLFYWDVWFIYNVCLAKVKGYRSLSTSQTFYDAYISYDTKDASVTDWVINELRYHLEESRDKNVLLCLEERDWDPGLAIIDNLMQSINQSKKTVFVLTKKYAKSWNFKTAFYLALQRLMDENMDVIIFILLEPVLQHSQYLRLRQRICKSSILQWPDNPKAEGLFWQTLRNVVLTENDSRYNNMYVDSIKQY
Protocol: as §1, §2

[4] = Homo sapiens, THP-1, IL-1β production, human
[5] = Homo sapiens, THP-1, IL-1β production, human cells

Compound	EC50 [1, 4] [µM]	EC50 ([2]; activity range class) [µM]	EC50 ([3]; activity range class) [µM]	EC50 [1, 5] [µM]	EC50 ([2]; activity range) [µM]	EC50 ([3]; activity range) [µM]	EC50 ([1]; IL-1β production, human) [µM]
Nc1nc2cc(-c3cc[nH]n3)ccc2c2nn(CCNC(=O)c3ccc(F)cn3)cc12 [Example 196]	0.18	> 100	> 100				
CC(C)(O)Cn1ncc2c(N)nc3cc(-c4cc[nH]n4)ccc3c21 [Example 432]				3.19	> 100	> 100	
CC(=O)NCCn1cc2c(n1)c(N)nc1cc(-c3cc[nH]n3)ccc12 [Example 33]	11.8	> 100	> 100				
Nc1nc2cc(-c3cc[nH]n3)ccc2c2cn(CC(=O)N3CCCC3)nc12 [Example 528]				0.51	> 100	> 100	
C[C@@H](O)Cn1cc2c(N)nc3cc(-c4cc[nH]n4)ccc3c2n1 [Example 370]	0.38	> 100	> 100				
CCN1CCOCC1Cn1cc2c(N)nc3cc(-c4ccn[nH]4)ccc3c2n1 (stereo not drawn) [Example 263]	1.66	> 100	> 100				
Nc1nc2cc(-n3cccn3)ccc2c2cn(CC3CCCCO3)nc12 (stereo not drawn) [Example 18]	1.13	20 to 100	> 100				
CC(=O)NCCCc1nc2c(N)nc3cc(-c4ccn[nH]4)ccc3c2s1 [Example 139, N-[3-[4-amino-7-(1H-pyrazol-5-yl)-[1,3]thiazolo[4,5-c]quinolin-2-yl]propyl]acetamide]	7.8	> 100	> 100				
COC1CCCN(CCn2cc3c(N)nc4cc(-c5ccn[nH]5)ccc4c3n2)C1 (stereo not drawn) [Example 265]	2.47	> 100	> 100				
CCn1c(CCCO)cc2c(N)nc3cc(-c4ccn[nH]4)ccc3c21 [Example 449]				0.7	> 100	> 100	
Nc1nc2cc(-c3cc[nH]n3)ccc2c2cn(CCNC(=O)c3ncc(F)cc3F)nc12 [Example 66]	0.8	> 100	> 100				
Nc1nc2cc(-n3cccn3)ccc2c2cn(CCN3CCOCC3)nc12 [Example 13]	1.78	20 to 100	> 100				
CC(=O)NC(C)Cn1ncc2c(N)nc3cc(-c4cc[nH]n4)ccc3c21 (stereo not drawn) [Example 429]				13	> 100	> 100	
CC(C)(C)OC(=O)Nc1nc(C(=O)NCCn2cc3c(n2)c(N)nc2cc(-c4cc[nH]n4)ccc23)cs1 [Example 80]	2.07	> 100	20 to 100				
CCN(CC)C(=O)C(C)n1cc2c(N)nc3cc(-c4ccn[nH]4)ccc3c2n1 (stereo not drawn) [Example 583]				1.82	> 100	> 100	
C[C@H](CO)Cn1cc2c(n1)c(N)nc1cc(-c3cc[nH]n3)ccc12 [Example 399]				0.23	> 100	> 100	
Nc1nc2cc(-c3cc[nH]n3)ccc2c2c1cnn2C1CCOCC1 [Example 311]	0.71	> 100	> 100				
CC(C)(N)Cn1cc2c(N)nc3cc(-c4ccn[nH]4)ccc3c2n1 [Example 267]	1.07	> 100	> 100				
CCn1cc2c(N)nc3cc(-c4cc[nH]n4)ccc3c2n1 [Example 334]	0.11	> 100	> 100				
Nc1nc2cc(-c3cc[nH]n3)ccc2c2nn(CC(O)CC(F)(F)F)cc12 (single isomer, unassigned) [Example 379]		> 100	> 100				0.32
Nc1nc2cc(-c3cc[nH]n3)ccc2c2[nH]c(CN3CC[C@@H](O)C3)cc12 [Example 480]				0.26	> 100	> 100	
Nc1nc2cc(-c3cc[nH]n3)ccc2c2nn(C3CCCCC3O)cc12 (single isomer, unassigned) [Example 318]		> 100	> 100				3.09
NCCCc1nc2c(N)nc3cc(-c4ccn[nH]4)ccc3c2s1 [Example 138]	3.92	> 100	> 100				
C[C@H](CO)Cn1cc2c(N)nc3cc(-c4cc[nH]n4)ccc3c2n1 [Example 308]	0.41	> 100	> 100				
Nc1nc2cc(-c3cc[nH]n3)ccc2c2cn(CCCOc3cccnc3)nc12 [Example 9]	0.57	> 100	> 100				
CC(C)n1cc2c(N)nc3cc(-c4cc[nH]n4)ccc3c2n1 [Example 326]	0.22	> 100	> 100				
Nc1nc2cc(-c3cc[nH]n3)ccc2c2cn(CCNCc3ccccn3)nc12 [Example 112]	2.5	> 100	> 100				
